Results on 18 molecules are retold here after patent publication US9676773B2, “Azaindole derivative” (TAIHO PHARMACEUTICAL CO., LTD., priority 2014, dated 2017).

Assay [1] has as its target T1, purified recombinant human JAK1 protein (Homo sapiens, UniProt P23458).
T1 construct: purchased Carna Biosciences, Inc
Description: Measurement of JAK1 kinase-inhibitory activity. Type of assay: biochemical. The note with it: substrate peptide 1 μM, ATP 75 M (so in the source), 25° C., 120 minutes. As for the experimental part: 1) Measurement of JAK1 Kinase-Inhibitory Activity
The activity of the compound of the present invention to inhibit the activity of JAK1 kinase was measured.
Among materials for the measurement of this inhibitory activity, a substrate peptide and a kinase protein were acquired as follows. As such a substrate peptide, a substrate peptide for QSS Assist™ JAK1-MSA assay kit (Carna Biosciences, Inc.) was purchased. As such a kinase protein, a purified recombinant human JAK1 protein (Carna Biosciences, Inc.) was purchased.
The method for measuring the inhibitory activity is as follows. First, the compounds of the present invention were each dissolved in dimethyl sulfoxide (DMSO), and a serial dilution was then prepared by the use of DMSO. Subsequently, a serial dilution solution of the compound (the final concentration of DMSO upon a kinase reaction: 5.0%) or DMSO (final concentration: 5.0%) was mixed with a solution containing the substrate peptide (final concentration: 1 μM), magnesium chloride (final concentration: 5 mM) and ATP (final concentration: 75 µM) in a buffer for kinase reaction (20 mM HEPES (pH 7.5), 2 mM dithiothreitol and 0.01% Triton X-100). Thereafter, a JAK1 protein was further added to the mixed solution, and the obtained mixture was then incubated at 25° C. for 120 minutes to carry out a kinase reaction. To the reaction solution, EDTA was added to a final concentration of 30 mM, so as to terminate the reaction. Finally, with LabChip EZ Reader II (Perkin Elmer Corp.), an unphosphorylated substrate peptide (S) and a phosphorylated peptide (P) were subjected to microchannel capillary electrophoresis, so that the two peptides were separated from each other and were then detected. The amount of a phosphorylation reaction was obtained based on the heights of the peaks of S and P, and the concentration of the compound capable of inhibiting 50% of the phosphorylation reaction was defined as an IC50 value (nM).

Assay [2] deals with T2, purified recombinant human JAK3 protein (Homo sapiens, UniProt P52333).
T2 construct: purchased Carna Biosciences, Inc
T2 sequence (P52333 1-1124): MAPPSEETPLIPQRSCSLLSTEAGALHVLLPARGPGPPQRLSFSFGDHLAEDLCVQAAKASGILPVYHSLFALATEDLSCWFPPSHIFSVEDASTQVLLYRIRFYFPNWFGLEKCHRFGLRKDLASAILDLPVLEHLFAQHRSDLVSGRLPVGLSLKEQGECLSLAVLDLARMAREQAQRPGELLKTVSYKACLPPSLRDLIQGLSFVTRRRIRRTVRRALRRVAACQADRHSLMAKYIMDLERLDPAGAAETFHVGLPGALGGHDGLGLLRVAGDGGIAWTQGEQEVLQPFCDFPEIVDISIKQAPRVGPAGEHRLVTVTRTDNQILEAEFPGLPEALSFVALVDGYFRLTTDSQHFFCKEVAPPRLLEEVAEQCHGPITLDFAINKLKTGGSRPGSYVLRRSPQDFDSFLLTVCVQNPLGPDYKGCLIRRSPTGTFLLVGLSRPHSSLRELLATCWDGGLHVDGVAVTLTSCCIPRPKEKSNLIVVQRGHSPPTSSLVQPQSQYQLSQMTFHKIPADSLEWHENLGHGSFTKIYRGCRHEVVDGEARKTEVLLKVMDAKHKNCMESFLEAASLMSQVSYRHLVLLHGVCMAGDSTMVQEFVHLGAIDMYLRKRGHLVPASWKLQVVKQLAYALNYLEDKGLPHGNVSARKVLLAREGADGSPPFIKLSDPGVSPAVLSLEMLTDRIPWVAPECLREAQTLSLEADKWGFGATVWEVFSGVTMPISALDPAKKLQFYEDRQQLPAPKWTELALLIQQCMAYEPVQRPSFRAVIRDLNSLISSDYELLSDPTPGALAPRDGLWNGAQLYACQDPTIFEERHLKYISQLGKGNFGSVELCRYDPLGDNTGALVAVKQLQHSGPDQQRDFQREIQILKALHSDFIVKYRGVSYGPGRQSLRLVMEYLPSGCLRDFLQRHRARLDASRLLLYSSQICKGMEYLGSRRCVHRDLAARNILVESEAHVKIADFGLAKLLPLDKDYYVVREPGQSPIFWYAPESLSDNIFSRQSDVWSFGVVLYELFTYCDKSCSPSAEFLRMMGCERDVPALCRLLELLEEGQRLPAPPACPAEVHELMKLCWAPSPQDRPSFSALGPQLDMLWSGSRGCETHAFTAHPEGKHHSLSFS
Description: Measurement of JAK3 kinase-inhibitory activity. The conditions noted are these: substrate peptide 1 μM, ATP 5 μM, 25° C., 80 minutes. Type of assay: biochemical. As for the experimental part: 3) Measurement of JAK3 Kinase-Inhibitory Activity
The activity of the compound of the present invention to inhibit the activity of JAK3 kinase was measured.
Among materials for the measurement of this inhibitory activity, a substrate peptide and a kinase protein were acquired as follows. As such a substrate peptide, a substrate peptide for QSS Assist™ JAK3-MSA assay kit (Carna Biosciences, Inc.) was purchased. As such a kinase protein, a purified recombinant human JAK3 protein (Carna Biosciences, Inc.) was purchased.
The method for measuring the inhibitory activity is as follows. First, a serial dilution of the compound of the present invention was prepared by the same method as that described in the above section regarding JAK1. This serial dilution solution (the final concentration of DMSO upon a kinase reaction: 5.0%) or DMSO (final concentration: 5.0%) was mixed with a solution containing the substrate peptide (final concentration: 1 μM), magnesium chloride (final concentration: 5 mM) and ATP (final concentration: 5 μM) in a buffer for kinase reaction (20 mM HEPES (pH 7.5), 2 mM dithiothreitol and 0.01% Triton X-100). Thereafter, a JAK3 protein was further added to the mixed solution, and the obtained mixture was then incubated at 25° C. for 80 minutes to carry out a kinase reaction. To the reaction solution, EDTA was added to a final concentration of 30 mM, so as to terminate the reaction. After termination of the reaction, the measurement and the data analysis were carried out by the same methods as those described in the above section regarding JAK1.

T1 sequence (P23458 whole entry): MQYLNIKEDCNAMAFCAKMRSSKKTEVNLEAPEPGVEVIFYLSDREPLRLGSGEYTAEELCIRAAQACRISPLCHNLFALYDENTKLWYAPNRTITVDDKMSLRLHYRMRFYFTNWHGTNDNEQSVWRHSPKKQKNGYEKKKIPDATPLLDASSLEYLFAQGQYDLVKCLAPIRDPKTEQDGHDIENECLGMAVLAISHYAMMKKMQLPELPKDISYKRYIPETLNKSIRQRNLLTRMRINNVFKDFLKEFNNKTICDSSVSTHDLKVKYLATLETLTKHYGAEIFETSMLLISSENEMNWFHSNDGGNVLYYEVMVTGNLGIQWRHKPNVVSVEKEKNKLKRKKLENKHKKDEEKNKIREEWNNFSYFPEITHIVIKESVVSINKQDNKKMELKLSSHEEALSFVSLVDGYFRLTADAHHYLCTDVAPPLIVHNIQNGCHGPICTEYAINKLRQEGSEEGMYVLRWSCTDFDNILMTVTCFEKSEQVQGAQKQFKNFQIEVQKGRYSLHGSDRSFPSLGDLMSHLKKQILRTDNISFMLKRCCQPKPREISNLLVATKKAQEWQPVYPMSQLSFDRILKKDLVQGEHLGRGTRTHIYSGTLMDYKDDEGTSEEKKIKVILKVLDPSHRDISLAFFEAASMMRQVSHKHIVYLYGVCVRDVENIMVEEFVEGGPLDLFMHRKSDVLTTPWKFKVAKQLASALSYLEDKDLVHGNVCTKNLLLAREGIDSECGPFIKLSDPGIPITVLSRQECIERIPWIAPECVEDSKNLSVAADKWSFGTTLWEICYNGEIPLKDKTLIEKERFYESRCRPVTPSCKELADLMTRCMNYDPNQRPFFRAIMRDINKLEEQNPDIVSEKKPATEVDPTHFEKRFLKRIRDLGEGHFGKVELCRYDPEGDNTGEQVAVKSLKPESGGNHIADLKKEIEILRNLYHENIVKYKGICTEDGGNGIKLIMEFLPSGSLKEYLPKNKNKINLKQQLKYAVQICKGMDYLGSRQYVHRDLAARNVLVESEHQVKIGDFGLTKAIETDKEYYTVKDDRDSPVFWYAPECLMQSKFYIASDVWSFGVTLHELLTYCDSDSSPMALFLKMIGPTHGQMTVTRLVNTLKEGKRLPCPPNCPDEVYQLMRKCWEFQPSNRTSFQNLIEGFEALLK

With `C1=C(c2ccnc3[nH]ccc23)CCCC1` [Comparative Example 1, reference compound], the IC50 in assay [1] is 1200 nM; in assay [2], 250 nM.
On to `C1=C(c2ccnc3[nH]ccc23)CCC1` [Comparative Example 2, 4-(Cyclopent-1-en-1-yl)-1H-pyrrolo[2,3-b]pyridine, reference compound], for which the IC50 in assay [1] turned out to be 2200 nM; in assay [2] it was 350 nM.
Taken in the same sequence, the figures for `Cc1nc(-c2c[nH]c3ncc(-c4ccccc4)cc23)cs1` [Comparative Example 3, 2-Methyl-4-(5-phenyl-1H-pyrrolo[2,3-b]pyridin-3-yl)thiazole, reference compound] were 2900 nM and 460 nM.
For `C=CC(=O)NC1CCC=C(c2ccnc3[nH]cc(-c4ccccc4)c23)C1` (stereo not drawn) [Compound 1, N-(3-(3-Phenyl-1H-pyrrolo[2,3-b]pyridin-4-yl)cyclohex-3-en-1-yl)acrylamide], the half-maximal inhibitory concentration (IC50) is 740 nM in assay [1] and under 0.3 nM in assay [2].
For `C=CC(=O)NC1CCC=C(c2ccnc3[nH]cc(-c4cn[nH]c4)c23)C1` (stereo not drawn) [Compound 3, N-(3-(3-(1H-Pyrazol-4-yl)-1H-pyrrolo[2,3-b]pyridin-4-yl)cyclohex-3-en-1-yl)acrylamide], the figures for the half-inhibitory concentration (IC50) in assay [1] and in assay [2] were 1900 nM and under 0.3 nM, respectively.
In the case of `C=CC(=O)NC1CCC=C(c2ccnc3[nH]cc(-c4cccnc4OC)c23)C1` (stereo not drawn) [Compound 6, N-(3-(3-(2-Methoxypyridin-3-yl)-1H-pyrrolo[2,3-b]pyridin-4-yl)cyclohex-3-en-1-yl)acrylamide], the values for the IC50 in assay [1] and in assay [2] were 1100 nM and 0.42 nM, respectively.
`C=CC(=O)NC1CCC=C(c2ccnc3[nH]cc(-c4ccc(CO)o4)c23)C1` (stereo not drawn) [Compound 10, N-(3-(3-(5-(Hydroxymethyl)furan-2-yl)-1H-pyrrolo[2,3-b]pyridin-4-yl)cyclohex-3-en-1-yl)acrylamide]: the results for the IC50 in assay [1] and in assay [2] were 1900 nM and under 0.3 nM, respectively.
Regarding `C=CC(=O)NC1CCC=C(c2ccnc3[nH]cc(-c4ccco4)c23)C1` (stereo not drawn) [Compound 12, N-(3-(3-(Furan-2-yl)-1H-pyrrolo[2,3-b]pyridin-4-yl)cyclohex-3-en-1-yl)acrylamide], the IC50 in assay [1] was 780 nM; in assay [2] it was under 0.3 nM.
In the case of `C=CC(=O)NC1CCC=C(c2ccnc3[nH]cc(-c4cc(CO)co4)c23)C1` (stereo not drawn) [Compound 14, N-(3-(3-(4-(Hydroxymethyl)furan-2-yl)-1H-pyrrolo[2,3-b]pyridin-4-yl)cyclohex-3-en-1-yl)acrylamide], the half-maximal inhibitory concentration (IC50) was 3200 nM in assay [1] and under 0.3 nM in assay [2].
Take `C=CC(=O)NC1CCC=C(c2ccnc3[nH]cc(C4=CCOC4)c23)C1` (stereo not drawn) [Compound 34, N-(3-(3-(2,5-Dihydrofuran-3-yl)-1H-pyrrolo[2,3-b]pyridin-4-yl)cyclohex-3-en-1-yl)acrylamide]: the IC50 in assay [1] was 2400 nM; in assay [2], under 0.3 nM.
Take `C=CC(=O)NC1CCC=C(c2ccnc3[nH]cc(-c4ccc(F)nc4)c23)C1` (stereo not drawn) [Compound 37, N-(3-(3-(6-Fluoropyridin-3-yl)-1H-pyrrolo[2,3-b]pyridin-4-yl)cyclohex-3-en-1-yl)acrylamide]: the IC50 in assay [1] is 4400 nM; in assay [2] it was under 0.3 nM.
Taken in the same sequence, the figures for `C=CC(=O)NC1CCC=C(c2ccnc3[nH]cc(-c4cnco4)c23)C1` (stereo not drawn) [Compound 48, N-(3-(3-(Oxazol-5-yl)-1H-pyrrolo[2,3-b]pyridin-4-yl)cyclohex-3-en-1-yl)acrylamide] were 2400 nM and under 0.3 nM.
In the case of `C=CC(=O)NC1CCC=C(c2ccnc3[nH]cc(-c4nnco4)c23)C1` (stereo not drawn) [Compound 49, N-(3-(3-(1,3,4-Oxadiazol-2-yl)-1H-pyrrolo[2,3-b]pyridin-4-yl)cyclohex-3-en-1-yl)acrylamide], the IC50 is 3400 nM in assay [1] and under 0.3 nM in assay [2].
`C=CC(=O)NC1CCC=C(c2ccnc3[nH]cc(-c4nn(C)c(=O)o4)c23)C1` (stereo not drawn) [Compound 53, N-(3-(3-(4-Methyl-5-oxo-4,5-dihydro-1,3,4-oxadiazol-2-yl)-1H-pyrrolo[2,3-b]pyridin-4-yl)cyclohex-3-en-1-yl)acrylamide]: the IC50 in assay [1] is 3900 nM; in assay [2], under 0.3 nM.
For `C=CC(=O)NC1CCC=C(c2ccnc3[nH]cc(-c4nncs4)c23)C1` (stereo not drawn) [Compound 54], the concentration for half-maximal inhibition (IC50) was determined as 6900 nM in assay [1] and 0.45 nM in assay [2].
Taken in the same sequence, the figures for `C=CC(=O)N[C@H]1CCC=C(c2ccnc3[nH]cc(-c4nnco4)c23)C1` [Compound 55, (S)—N-(3-(3-(1,3,4-Oxadiazol-2-yl)-1H-pyrrolo[2,3-b]pyridin-4-yl)cyclohex-3-en-1-yl)acrylamide] were 1000 nM and under 0.3 nM.
In the case of `C=CC(=O)NC1CC=C(c2ccnc3[nH]cc(-c4nnco4)c23)C1` (stereo not drawn) [Compound 57, N-(3-(3-(1,3,4-Oxadiazol-2-yl)-1H-pyrrolo[2,3-b]pyridin-4-yl)cyclopent-3-en-1-yl)acrylamide], the 50% inhibitory concentration (IC50) in assay [1] was 3500 nM; in assay [2] it was 0.57 nM.
In the case of `C=CC(=O)N[C@H]1CCC=C(c2ccnc3[nH]cc(-c4ccno4)c23)C1` [Compound 59], the 50% inhibitory concentration (IC50) in assay [1] is 1500 nM; in assay [2] it was under 0.3 nM.
